In the supplement of paper PMC10307832:

Columns and labels:
Experiment in all cases: relative viability (nuclei count vs DMSO), 5 days (fraction); higher = more cells survive
Ponatinib + AZD7762 = compound: Cc1ccc(C(=O)Nc2ccc(CN3CCN(C)CC3)c(C(F)(F)F)c2)cc1C#Cc1cnc2cccnn12 [Ponatinib] + NC(=O)Nc1cc(-c2cccc(F)c2)sc1C(=O)N[C@H]1CCCNC1 [AZD7762] (partner 0.2 µM)
Procedure, shortened: (§1)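 Relative viability equals treated-well nuclei counts divided by vehicle-well nuclei counts. Counts came from 4× images of lung cancer cell lines grown in 1536-well plates for 5 days after pin-tool dosing on the day after seeding. Dosing used one drug alone or a fixed anchor-drug dose plus five library-drug doses (not always all listed) in √10 steps, and values are medians of duplicate plates.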

Pazopanib + Foretinib = compound: Cc1ccc(Nc2nccc(N(C)c3ccc4c(C)n(C)nc4c3)n2)cc1S(N)(=O)=O [Pazopanib] + COc1cc2c(Oc3ccc(NC(=O)C4(C(=O)Nc5ccc(F)cc5)CC4)cc3F)ccnc2cc1OCCCN1CCOCC1 [Foretinib] (partner 0.25 µM)
Procedure, shortened: as §1

Ponatinib + Vorinostat = compound: Cc1ccc(C(=O)Nc2ccc(CN3CCN(C)CC3)c(C(F)(F)F)c2)cc1C#Cc1cnc2cccnn12 [Ponatinib] + O=C(CCCCCCC(=O)Nc1ccccc1)NO [Vorinostat] (partner 1 µM)
Procedure, shortened: as §1

Pazopanib + Crizotinib = compound: Cc1ccc(Nc2nccc(N(C)c3ccc4c(C)n(C)nc4c3)n2)cc1S(N)(=O)=O [Pazopanib] + C[C@@H](Oc1cc(-c2cnn(C3CCNCC3)c2)cnc1N)c1c(Cl)ccc(F)c1Cl [Crizotinib] (partner 1 µM)
Procedure, shortened: as §1

| Cell Line | relative viability (Ponatinib + AZD7762; first compound 0.002 µM) | relative viability (Ponatinib + AZD7762; first compound 0.006325 µM) | relative viability (Ponatinib + AZD7762; first compound 0.06325 µM) | relative viability (Ponatinib + AZD7762; first compound 0.2 µM) | relative viability (Pazopanib + Foretinib; first compound 0.01 µM) | relative viability (Pazopanib + Foretinib; first compound 0.03162 µM) | relative viability (Pazopanib + Foretinib; first compound 0.1 µM) | relative viability (Pazopanib + Foretinib; first compound 0.3162 µM) | relative viability (Pazopanib + Foretinib; first compound 1 µM) | relative viability (Ponatinib + Vorinostat; first compound 0.002 µM) | relative viability (Ponatinib + Vorinostat; first compound 0.006325 µM) | relative viability (Ponatinib + Vorinostat; first compound 0.06325 µM) | relative viability (Ponatinib + Vorinostat; first compound 0.2 µM) | relative viability (Pazopanib + Crizotinib; first compound 0.01 µM) | relative viability (Pazopanib + Crizotinib; first compound 0.03162 µM) | relative viability (Pazopanib + Crizotinib; first compound 0.1 µM) | relative viability (Pazopanib + Crizotinib; first compound 0.3162 µM) | relative viability (Pazopanib + Crizotinib; first compound 1 µM) |
| --- | --- | --- | --- | --- | --- | --- | --- | --- | --- | --- | --- | --- | --- | --- | --- | --- | --- | --- |
| HCC-827 | 0.185 | 0.216 | 0.182 | 0.253 | 1.07 | 0.992 | 1.05 | 1.06 | 0.969 | 0.736 | 0.78 | 0.821 | 0.801 | 0.999 | 0.976 | 0.906 | 0.902 | 0.922 |
| HOP-62 | 0.643 | 0.417 | 0.831 | 0.439 | 1.05 | 1.04 | 1.2 | 1.08 | 0.976 | 0.516 | 0.509 | 0.682 | 0.597 | 0.974 | 0.68 |  | 0.946 | 0.948 |
| IA-LM |  |  |  |  | 1.17 | 1.07 | 1.13 | 1.04 | 1.02 | 0.913 | 0.875 | 0.861 | 0.783 | 0.93 |  | 0.938 | 0.843 | 0.659 |
| LC-2-ad | 0.833 | 0.858 | 0.977 | 0.872 | 0.888 | 0.927 | 1.05 | 0.967 | 1.04 | 0.653 | 0.667 | 0.626 | 0.591 | 0.483 | 0.462 | 0.467 | 0.423 | 0.467 |
| LCLC-97TM1 | 0.141 | 0.264 | 0.289 | 0.28 | 0.908 | 0.976 | 1.03 | 0.909 | 0.905 | 0.806 | 0.748 | 0.665 | 0.535 |  | 0.309 | 0.277 | 0.297 | 0.427 |
| NCI-H520 |  |  |  |  | 0.675 | 1.02 | 0.688 | 0.799 | 0.936 | 0.686 | 0.59 | 0.663 | 0.499 |  | 0.894 | 0.991 | 0.672 | 0.747 |
| NCI-H522 | 0.664 | 0.784 | 0.695 | 0.819 |  |  |  |  |  | 0.853 | 0.964 | 0.95 | 0.928 |  |  |  |  |  |
| NCI-H661 |  |  |  |  | 0.996 | 1.08 | 1.04 | 1 | 0.995 | 0.735 | 0.775 | 0.831 | 0.819 | 1.13 | 0.976 | 1.03 | 0.998 | 0.987 |
| NCI-H1299 |  |  |  |  | 1.07 | 1.06 | 1.13 | 1.09 | 1.01 |  |  |  |  | 0.983 | 0.913 | 0.921 | 0.969 | 0.892 |
| NCI-H1395 | 0.387 | 0.41 | 0.371 | 0.362 | 0.947 | 1.07 | 1.01 | 0.931 | 0.968 | 0.483 | 0.578 | 0.678 | 0.416 |  |  |  |  |  |
| NCI-H1563 |  |  |  |  | 0.823 | 0.966 | 1.04 | 0.969 | 1.08 |  |  |  |  | 0.963 | 0.88 | 0.894 | 0.878 | 0.888 |
| NCI-H1623 |  |  |  |  | 0.835 | 0.846 | 0.834 | 0.896 | 0.911 |  |  |  |  |  |  |  |  |  |
| NCI-H1648 | 0.627 | 0.64 | 0.618 | 0.567 |  |  |  |  |  | 0.381 | 0.335 | 0.455 | 0.462 |  |  |  |  |  |
| NCI-H1650 |  |  |  |  | 1.12 | 1.2 | 1.15 | 1.05 | 1.09 | 0.642 | 0.539 | 0.654 | 0.65 | 1.09 | 1 | 1 | 0.857 | 0.965 |
| NCI-H1703 | 0.118 | 0.143 | 0.118 | 0.143 | 0.306 | 0.358 | 0.362 | 0.396 | 0.337 |  |  |  |  | 0.587 | 0.628 | 0.261 | 0.215 | 0.221 |
| NCI-H1792 | 0.708 | 0.478 | 0.55 | 0.407 |  |  |  |  |  |  |  |  |  |  | 0.927 | 0.967 | 0.912 | 0.952 |
| NCI-H1793 | 0.406 | 0.466 | 0.282 | 0.178 |  | 0.478 | 0.628 | 0.867 | 0.938 | 0.678 | 0.701 | 0.846 | 0.686 |  |  |  |  |  |
| NCI-H2009 |  |  |  |  | 1.2 | 1.16 | 1.19 | 1.15 | 1.06 | 0.666 | 0.783 | 0.694 | 0.585 | 1.05 | 1.06 | 1.01 | 1.05 | 0.964 |
| NCI-H2023 |  |  |  |  |  | 0.886 | 0.77 | 0.849 | 0.893 | 0.661 | 0.634 | 0.851 | 0.593 | 0.695 | 0.762 | 0.666 | 0.613 | 0.728 |
| NCI-H2228 |  |  |  |  | 0.938 | 1.01 | 0.764 | 0.792 | 0.993 | 0.658 | 0.588 | 0.7 | 0.575 | 0.51 | 0.446 | 0.402 | 0.496 | 0.366 |
| NCI-H2342 | 0.436 | 0.457 | 0.467 | 0.456 | 0.981 | 1 | 1.09 | 0.939 | 0.755 | 0.676 | 0.779 | 0.886 | 0.731 |  |  |  |  |  |
| SK-LU-1 |  |  |  |  | 0.872 | 0.988 | 0.884 | 0.851 | 0.809 | 0.699 | 0.76 | 0.832 | 0.702 | 0.952 | 1.02 | 1.14 | 0.976 | 0.852 |
| SK-MES-1 |  |  |  |  | 0.95 | 0.985 | 0.951 | 0.951 | 1.1 | 0.999 | 1.08 | 1.36 | 1.08 | 0.93 | 1 | 1.01 | 1.01 | 0.98 |
| SW 900 | 0.569 | 0.46 | 0.606 | 0.537 | 0.843 | 0.886 | 0.941 | 0.876 | 0.97 | 0.382 | 0.516 | 0.591 | 0.525 |  |  |  |  |  |
| SW 1573 |  |  |  |  | 0.83 | 0.938 | 0.934 | 0.998 | 0.998 | 0.564 | 0.737 | 0.835 | 0.575 | 0.813 | 0.878 | 0.974 | 0.836 | 0.757 |
